Data published in patent publication US20090215822A1, “Substituted Oxadiazole Derivatives as Positive Allosteric Modulators of Metabotropic Glutamate Receptors” (NIKEM RESEARCH SRL, priority 2005, published 2009).

Tests used:
mGluR5 = target: T1, mGluR5 (Rattus norvegicus, UniProt P31424); settings: Liu et al (2006), Zhang et al (2005); cited from earlier work
T1 construct: positive allosteric modulators of mGluR5 receptors in native preparations; endogenous in cells; host or cells: primary cortical astrocytes from Sprague-Dawley rat embryos (E16-19)
T1 sequence (P31424 21-1203): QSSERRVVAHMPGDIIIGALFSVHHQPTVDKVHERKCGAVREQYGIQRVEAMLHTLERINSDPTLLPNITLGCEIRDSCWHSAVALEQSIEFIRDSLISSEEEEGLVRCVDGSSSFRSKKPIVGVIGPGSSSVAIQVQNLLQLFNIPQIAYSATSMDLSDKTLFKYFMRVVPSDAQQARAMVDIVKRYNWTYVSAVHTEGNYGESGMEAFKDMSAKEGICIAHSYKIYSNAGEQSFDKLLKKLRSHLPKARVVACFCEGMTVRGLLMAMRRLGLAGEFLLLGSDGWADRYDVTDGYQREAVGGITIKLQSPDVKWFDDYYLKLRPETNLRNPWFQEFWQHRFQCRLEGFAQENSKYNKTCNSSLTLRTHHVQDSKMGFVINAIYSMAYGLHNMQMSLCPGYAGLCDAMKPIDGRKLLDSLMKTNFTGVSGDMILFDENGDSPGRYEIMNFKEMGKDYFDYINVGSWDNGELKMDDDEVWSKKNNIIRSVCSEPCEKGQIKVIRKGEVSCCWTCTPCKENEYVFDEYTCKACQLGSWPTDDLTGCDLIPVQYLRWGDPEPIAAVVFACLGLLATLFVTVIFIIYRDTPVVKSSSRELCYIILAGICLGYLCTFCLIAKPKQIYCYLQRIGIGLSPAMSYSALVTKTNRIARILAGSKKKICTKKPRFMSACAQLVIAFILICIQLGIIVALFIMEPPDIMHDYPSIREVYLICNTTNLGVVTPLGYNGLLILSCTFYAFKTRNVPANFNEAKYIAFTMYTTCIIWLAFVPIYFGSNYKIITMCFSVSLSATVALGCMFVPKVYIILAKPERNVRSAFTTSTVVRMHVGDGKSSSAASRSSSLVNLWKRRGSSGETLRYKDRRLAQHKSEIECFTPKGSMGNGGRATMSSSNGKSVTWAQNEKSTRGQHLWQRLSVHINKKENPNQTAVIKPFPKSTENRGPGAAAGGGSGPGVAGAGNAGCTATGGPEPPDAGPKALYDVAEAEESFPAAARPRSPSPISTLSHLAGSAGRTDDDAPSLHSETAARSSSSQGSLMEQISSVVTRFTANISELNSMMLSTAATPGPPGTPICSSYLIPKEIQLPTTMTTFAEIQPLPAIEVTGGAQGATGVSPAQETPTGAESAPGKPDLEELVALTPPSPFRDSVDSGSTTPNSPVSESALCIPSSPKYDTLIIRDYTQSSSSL

rat mGluR5 receptor = target: T2, rat mGluR5 receptor (Rattus norvegicus, UniProt P31424); test: mGluR5 assay on HEK-expressing rat mGluR5 (fluorescent cell based Ca2+ mobilization assay); settings: for activation of rat mGluR5 receptors without co-addition of glutamate: HEK-rat mGluR5 cell line, no added glutamate or agonist; for EC50: HEK-293 cells stably expressing rat mGluR5, no co-addition of glutamate, mean of at least three independent experiments in duplicate, read-out: Ca++ Flux (mean EC50)
T2 construct: expressed in transfected cells
T2 sequence (P31424 21-1171 isoform P31424-2 limits assumed): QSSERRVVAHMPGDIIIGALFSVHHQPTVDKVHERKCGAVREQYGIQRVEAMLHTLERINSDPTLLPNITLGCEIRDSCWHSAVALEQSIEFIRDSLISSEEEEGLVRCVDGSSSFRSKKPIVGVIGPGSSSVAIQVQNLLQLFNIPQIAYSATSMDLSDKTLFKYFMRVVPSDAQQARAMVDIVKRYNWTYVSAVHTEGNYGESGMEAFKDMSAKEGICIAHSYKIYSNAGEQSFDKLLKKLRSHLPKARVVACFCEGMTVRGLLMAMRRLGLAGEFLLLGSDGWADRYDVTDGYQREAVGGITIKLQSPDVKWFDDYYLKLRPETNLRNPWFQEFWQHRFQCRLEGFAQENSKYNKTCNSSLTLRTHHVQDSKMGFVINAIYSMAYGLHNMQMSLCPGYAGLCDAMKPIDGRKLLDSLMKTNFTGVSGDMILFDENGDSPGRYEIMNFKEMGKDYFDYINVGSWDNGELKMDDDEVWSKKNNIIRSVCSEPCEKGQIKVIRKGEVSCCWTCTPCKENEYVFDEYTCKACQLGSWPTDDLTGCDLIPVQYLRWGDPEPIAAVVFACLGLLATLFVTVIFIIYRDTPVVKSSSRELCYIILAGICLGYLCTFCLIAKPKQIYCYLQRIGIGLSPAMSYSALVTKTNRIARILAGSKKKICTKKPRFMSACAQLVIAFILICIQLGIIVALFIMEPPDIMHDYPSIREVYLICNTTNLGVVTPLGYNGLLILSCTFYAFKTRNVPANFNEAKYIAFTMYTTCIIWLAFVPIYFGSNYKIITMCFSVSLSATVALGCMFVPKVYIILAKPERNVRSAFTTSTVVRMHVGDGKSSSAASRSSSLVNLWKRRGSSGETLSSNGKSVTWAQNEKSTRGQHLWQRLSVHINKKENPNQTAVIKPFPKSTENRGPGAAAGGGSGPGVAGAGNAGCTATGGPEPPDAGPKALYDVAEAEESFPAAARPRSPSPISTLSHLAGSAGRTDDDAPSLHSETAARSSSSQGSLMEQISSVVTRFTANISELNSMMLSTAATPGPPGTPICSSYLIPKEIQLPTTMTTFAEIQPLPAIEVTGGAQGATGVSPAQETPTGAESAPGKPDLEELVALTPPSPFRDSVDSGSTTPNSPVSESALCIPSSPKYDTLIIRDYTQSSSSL
Description: Positive functional expression of HEK-293 cells stably expressing rat mGluR5 receptor was determined by measuring intracellular Ca^2+ changes using a Fluorometric Imaging Plate Reader (FLIPR, Molecular Devices, Sunnyvale, Calif.) in response to glutamate or selective known mGluR5 agonists and antagonists. Rat mGluR5 RT-PCR products in HEK-293 cells were sequenced and found 100% identical to rat mGluR5 Genbank reference sequence (NM_017012). HEK-293 cells expressing rmGluR5 were maintained in media containing DMEM, dialyzed Fetal Bovine Serum (10%), Glutamax™ (2 mM), Penicillin (100 units/ml), Streptomycin (100 μg/ml), Geneticin (100 μg/ml) and Hygromycin-B (40 μg/ml) at 37° C./5% CO2.
After one day of incubation, cells were washed with assay buffer containing: 142 mM NaCl, 6 mM KCl, 1 mM Mg2SO4, 1 mM CaCl2, 20 mM HEPES, 1 g/L glucose, 0.125 mM sulfinpyrazone, pH 7.4. After 60 min of loading with 4 uM Fluo-4 (TefLabs, Austin, Tex.), the cells were washed three times with 50 μl of PBS Buffer and resuspended in […] of assay Buffer. The plates were then transferred to a Fluorometric Imaging Plate Reader (FLIPR, Molecular Devices, Sunnyvale, Calif.) for the assessment of intracellular calcium flux. After monitoring the baseline fluorescence for 10 seconds, increasing concentrations of representative compound (from 0.01 to 60 μM) of the present invention diluted in Assay Buffer (15 μl of 4× dilutions) was added to the cell. The final DMSO concentration in the assay was 0.3%. In each experiment, fluorescence was then monitored as a function of time for 3 minutes and the data analyzed using Microsoft Excel and GraphPad Prism. Each data point was also measured two times.
Under these experimental conditions, this HEK-rat mGluR5 cell line is able to directly detect positive allosteric modulators without the need of co-addition of glutamate or mGluR5 agonist.
The concentration-response curves of representative compounds of the present invention were generated using the Prism GraphPad software (Graph Pad Inc, San Diego, USA). The curves were fitted to a four-parameter logistic equation:
(Y=Bottom+(Top-Bottom)/(1+10̂((Log EC50−X)*Hill Slope)
allowing determination of EC50 values.
The Table 1 below represents the mean EC50 obtained from at least three independent experiments of selected molecules performed in duplicate.

| activation of rat mGluR5 receptors without co-addition of glutamate (rat mGluR5 receptor) | melting point [°C] | EC50 (rat mGluR5 receptor) [nM] | SMILES | activity in rat cortical astrocytes culture in the absence of added glutamate (mGluR5) |
| --- | --- | --- | --- | --- |
| activating |  |  | N#Cc1cccc(C(=O)Nc2cc(-c3ccccc3)nn2-c2ccccc2)c1 [CDPPB, reference compound] | inactive |
| activating |  |  | O=C(Nc1ccc(Cl)cc1CN1C(=O)c2ccccc2C1=O)c1ccccc1O [CPPHA, reference compound] | inactive |
| activating |  |  | Fc1cccc(/C=N/N=C/c2cccc(F)c2)c1 [DFB, reference compound] | inactive |
|  | 132 to 134 | < 1000 | O=C(c1ccc(F)c(F)c1)N1CCCC(c2noc(-c3ccncc3)n2)C1 (centres unmarked) [Example 15, (3,4-Difluoro-phenyl)-[3-(5-pyridin-4-yl-[1,2,4]oxadiazol-3-yl)-piperidin-1-yl]-methanone] |  |
|  | 137 to 139 | 1000 to 10000 | O=C(c1ccc(F)cc1F)N1CCCC(c2noc(-c3ccncc3)n2)C1 (centres unmarked) [Example 16, (2,4-Difluoro-phenyl)-[3-(5-pyridin-4-yl-[1,2,4]oxadiazol-3-yl)-piperidin-1-yl]-methanone] |  |
|  | 91 | < 1000 | O=C(c1ccc(F)c(F)c1)N1CCCC(c2noc(-c3ccc(F)cc3F)n2)C1 (centres unmarked) [Example 17, (3,4-Difluoro-phenyl)-{3-[5-(2,4-difluoro-phenyl)-[1,2,4]oxadiazol-3-yl]-piperidin-1-yl}-methanone] |  |
|  | 137 to 139 | < 1000 | O=C(c1ccc(F)cc1F)N1CCCC(c2noc(-c3ccc(F)cc3)n2)C1 (centres unmarked) [Example 18, (2,4-Difluoro-phenyl)-{3-[5-(4-fluoro-phenyl)-[1,2,4]oxadiazol-3-yl]-piperidin-1-yl}-methanone] |  |
|  | 101 | 1000 to 10000 | O=C(c1ccc(F)cc1F)N1CCCC(c2noc(-c3ccc(F)cc3F)n2)C1 (centres unmarked) [Example 19, (2,4-Difluoro-phenyl)-{3-[5-(2,4-difluoro-phenyl)-[1,2,4]oxadiazol-3-yl]-piperidin-1-yl}-methanone] |  |
|  | 132 to 134 | 1000 to 10000 | O=C(c1ccc(F)nc1)N1CCCC(c2noc(-c3ccncc3)n2)C1 (centres unmarked) [Example 21, (6-Fluoro-pyridin-3-yl)-[3-(5-pyridin-4-yl-[1,2,4]oxadiazol-3-yl)-piperidin-1-yl]-methanone] |  |
|  | 79 | 1000 to 10000 | Cc1oncc1C(=O)N1CCCC(c2noc(-c3ccc(F)cc3F)n2)C1 (centres unmarked) [Example 24, {3-[5-(2,4-Difluoro-phenyl)-[1,2,4]oxadiazol-3-yl]-piperidin-1-yl}-(5-methyl-isoxazol-4-yl)-methanone] |  |
|  | 87 | 1000 to 10000 | O=C(c1ccc(F)nc1)N1CCCC(c2noc(-c3ccc(F)cc3F)n2)C1 (centres unmarked) [Example 25, {3-[5-(2,4-Difluoro-phenyl)-[1,2,4]oxadiazol-3-yl]-piperidin-1-yl}-(6-fluoro-pyridin-3-yl)-methanone] |  |
|  | 129 to 131 | 1000 to 10000 | Cc1cc(F)ccc1C(=O)N1CCCC(c2noc(-c3ccc(F)cc3)n2)C1 (centres unmarked) [Example 27, (4-Fluoro-2-methyl-phenyl)-{3-[5-(4-fluoro-phenyl)-[1,2,4]oxadiazol-3-yl]-piperidin-1-yl}-methanone] |  |
|  | 105 to 107 | < 1000 | Cc1oncc1C(=O)N1CCCC(c2noc(-c3ccc(F)cc3)n2)C1 (centres unmarked) [Example 28, {3-[5-(4-Fluoro-phenyl)-[1,2,4]oxadiazol-3-yl]-piperidin-1-yl}-(5-methyl-isoxazol-4-yl)-methanone] |  |
|  | 109 to 111 | < 1000 | O=C(c1ccc(F)nc1)N1CCCC(c2noc(-c3ccccc3)n2)C1 (centres unmarked) [Example 29, (6-Fluoro-pyridin-3-yl)-[3-(5-phenyl-[1,2,4]oxadiazol-3-yl)-piperidin-1-yl]-methanone] |  |
|  | 90 | > 10000 | O=C(c1ccc(F)nc1)N1CCCC(c2noc(-c3cscn3)n2)C1 (centres unmarked) [Example 30, (6-Fluoro-pyridin-3-yl)-[3-(5-thiazol-4-yl-[1,2,4]oxadiazol-3-yl)-piperidin-1-yl]-methanone] |  |
|  | 110 | 1000 to 10000 | Cc1cc(F)ccc1C(=O)N1CCCC(c2noc(-c3ccc(F)cc3F)n2)C1 (centres unmarked) [Example 31, {3-[5-(2,4-Difluoro-phenyl)-[1,2,4]oxadiazol-3-yl]-piperidin-1-yl}-(4-fluoro-2-methyl-phenyl)-methanone] |  |
|  | 116 to 118 | < 1000 | O=C(c1ccc(F)c(F)c1)N1CCCC(c2noc(-c3ccccc3)n2)C1 (centres unmarked) [Example 32, (3,4-Difluoro-phenyl)-[3-(5-phenyl-[1,2,4]oxadiazol-3-yl)-piperidin-1-yl]-methanone] |  |
|  | 116 to 117 | < 1000 | O=C(c1ccc(F)cc1F)N1CCCC(c2noc(-c3ccccc3)n2)C1 (centres unmarked) [Example 33, (2,4-Difluoro-phenyl)-[3-(5-phenyl-[1,2,4]oxadiazol-3-yl)-piperidin-1-yl]-methanone] |  |
|  | 103 to 104 | < 1000 | O=C(c1ccc(F)nc1)N1CCC[C@H](c2noc(-c3ccc(F)cc3)n2)C1 [Example 36, {(S)-3-[5-(4-Fluoro-phenyl)-[1,2,4]oxadiazol-3-yl]-piperidin-1-yl}-(6-fluoro-pyridin-3-yl)-methanone] |  |
|  | 120 | < 1000 | O=C(c1ccc(F)c(F)c1)N1CCC[C@H](c2noc(-c3ccc(F)cc3)n2)C1 [Example 37, (3,4-Difluoro-phenyl)-{(S)-3-[5-(4-fluoro-phenyl)-[1,2,4]oxadiazol-3-yl]-piperidin-1-yl}-methanone] |  |
|  | 85 | < 1000 | Cc1noc(C)c1C(=O)N1CCC[C@H](c2noc(-c3ccc(F)cc3)n2)C1 [Example 38, (3,5-Dimethyl-isoxazol-4-yl)-{(S)-3-[5-(4-fluoro-phenyl)-[1,2,4]oxadiazol-3-yl]-piperidin-1-yl}-methanone] |  |
|  | 65 | < 1000 | Cc1oncc1C(=O)N1CCC[C@H](c2noc(-c3ccc(F)cc3)n2)C1 [Example 39, {(S)-3-[5-(4-Fluoro-phenyl)-[1,2,4]oxadiazol-3-yl]-piperidin-1-yl}-(5-methyl-isoxazol-4-yl)-methanone] |  |
|  | 117 to 119 | < 1000 | O=C(c1ccnc(F)c1)N1CCC[C@H](c2noc(-c3ccc(F)cc3)n2)C1 [Example 40, {(S)-3-[5-(4-Fluoro-phenyl)-[1,2,4]oxadiazol-3-yl]-piperidin-1-yl}-(2-fluoro-pyridin-4-yl)-methanone] |  |
|  | 93 to 95 | 1000 to 10000 | O=C(c1ccc(F)cn1)N1CCC[C@H](c2noc(-c3ccc(F)cc3)n2)C1 [Example 42, {(S)-3-[5-(4-Fluoro-phenyl)-[1,2,4]oxadiazol-3-yl]-piperidin-1-yl}-(5-fluoro-pyridin-2-yl)-methanone] |  |
|  | 108 to 110 | < 1000 | O=C(c1ccc(F)cc1)N1CCC[C@H](c2noc(-c3ccc(F)cn3)n2)C1 [Example 44, (S)-(4-fluorophenyl)-{3-[5-(5-fluoropyridin-2-yl)-[1,2,4]oxadiazol-3-yl]-piperidin-1-yl}-methanone] |  |
